Where two headings read alike, the source gives them in different places.

In one assay the target is T1, human DGKα (Homo sapiens, UniProt P23743).
T1 construct: TVMV protease cleavage site (C); Hexa-His (C); made in house; host or cells: Sf9 insect cells (baculovirus, Bac-to-Bac)
The experiment in a line: DGKα LIPGLO assay (extruded liposome substrate), in vitro DGK inhibition. The class given is biochemical. The settings on record: read-out: DGKa LIPGLO IC50.

The target of the next assay is T2, human DGKζ (Homo sapiens, UniProt Q13574).
T2 construct: TVMV protease cleavage site (C); Hexa-His (C); made in house; host or cells: Sf9 insect cells (baculovirus, Bac-to-Bac)
T2 sequence (Q13574 with tags, fused parts or gaps isoform Q13574-4): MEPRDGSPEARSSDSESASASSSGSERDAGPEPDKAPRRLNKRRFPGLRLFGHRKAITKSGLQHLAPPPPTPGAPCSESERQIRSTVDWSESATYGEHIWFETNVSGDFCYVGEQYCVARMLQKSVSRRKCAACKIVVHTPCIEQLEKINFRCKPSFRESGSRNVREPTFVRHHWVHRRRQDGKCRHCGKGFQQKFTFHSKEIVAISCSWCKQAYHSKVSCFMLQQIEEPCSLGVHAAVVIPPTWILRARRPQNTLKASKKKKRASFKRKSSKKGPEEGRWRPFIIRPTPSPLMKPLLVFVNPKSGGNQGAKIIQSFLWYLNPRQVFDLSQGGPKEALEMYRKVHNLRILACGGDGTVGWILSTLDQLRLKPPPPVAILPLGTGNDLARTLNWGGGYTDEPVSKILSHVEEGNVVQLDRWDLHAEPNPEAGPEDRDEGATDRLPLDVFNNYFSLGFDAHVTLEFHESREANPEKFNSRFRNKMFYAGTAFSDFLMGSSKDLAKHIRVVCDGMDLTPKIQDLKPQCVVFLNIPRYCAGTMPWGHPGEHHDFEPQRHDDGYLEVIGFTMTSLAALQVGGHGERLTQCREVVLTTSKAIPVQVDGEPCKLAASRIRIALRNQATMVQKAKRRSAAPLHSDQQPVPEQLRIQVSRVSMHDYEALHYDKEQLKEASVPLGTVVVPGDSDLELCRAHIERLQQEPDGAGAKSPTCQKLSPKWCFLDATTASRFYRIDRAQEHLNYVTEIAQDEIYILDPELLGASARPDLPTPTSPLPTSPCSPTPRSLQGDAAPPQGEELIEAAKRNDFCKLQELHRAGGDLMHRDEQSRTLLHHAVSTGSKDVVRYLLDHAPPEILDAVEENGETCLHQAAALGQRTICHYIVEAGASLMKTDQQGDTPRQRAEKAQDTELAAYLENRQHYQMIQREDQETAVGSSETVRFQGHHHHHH
The experiment in a line: DGKζ LIPGLO assay (extruded liposome substrate), in vitro DGK inhibition. The settings on record: read-out: DGKz LIPGLO IC50. The class given is biochemical.

T1 sequence (P23743 with tags, fused parts or gaps): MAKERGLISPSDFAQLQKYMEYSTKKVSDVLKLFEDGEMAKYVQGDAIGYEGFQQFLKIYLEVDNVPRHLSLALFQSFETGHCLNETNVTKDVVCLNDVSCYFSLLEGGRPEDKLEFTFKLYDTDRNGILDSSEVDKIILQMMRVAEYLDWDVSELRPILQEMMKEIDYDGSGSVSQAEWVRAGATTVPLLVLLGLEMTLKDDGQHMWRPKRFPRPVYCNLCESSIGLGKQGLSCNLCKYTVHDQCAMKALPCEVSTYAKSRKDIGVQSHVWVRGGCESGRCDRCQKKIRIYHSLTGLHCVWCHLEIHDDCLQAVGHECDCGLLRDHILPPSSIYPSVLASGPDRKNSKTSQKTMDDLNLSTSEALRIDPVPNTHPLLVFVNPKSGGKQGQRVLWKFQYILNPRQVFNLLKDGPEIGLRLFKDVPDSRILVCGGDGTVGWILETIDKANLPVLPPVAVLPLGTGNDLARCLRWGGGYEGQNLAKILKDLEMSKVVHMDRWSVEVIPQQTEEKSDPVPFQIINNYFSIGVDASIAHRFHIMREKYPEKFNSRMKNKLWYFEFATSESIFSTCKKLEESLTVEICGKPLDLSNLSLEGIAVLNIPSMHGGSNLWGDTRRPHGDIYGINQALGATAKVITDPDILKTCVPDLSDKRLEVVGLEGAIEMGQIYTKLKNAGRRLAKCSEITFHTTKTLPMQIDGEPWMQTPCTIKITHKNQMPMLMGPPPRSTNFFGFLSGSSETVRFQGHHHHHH

As for `C[C@@H]1CN(c2cc(=O)n(C)c3ccc(C#N)nc23)[C@@H](C)CN1C(c1ccc(F)cc1)C1CCS(=O)(=O)CC1` (single isomer, unassigned) [Example 1301], the figures for the IC50 on human DGKα (liposome (LIPGLO) assay) and on human DGKζ (liposome (LIPGLO) assay) were 91 µM and 3.6 µM, respectively.
In the case of `CC(c1ccc(C(=O)O)cc1)N1CCN(c2c(C#N)c(=O)n(C)c3ccc(C#N)nc23)C[C@H]1C` (stereo partly shown) [Example 973], the IC50 on human DGKα (DGKα liposome (LIPGLO) assay) and at human DGKζ (DGKζ liposome (LIPGLO) assay) was > 250 µM in each case.
`C[C@@H]1CN(c2c(C#N)c(=O)n(C)c3ccc(C#N)nc23)CCN1Cc1cccnc1` [Example 998]: the IC50 on human DGKα (DGKα liposome (LIPGLO) assay) is 21 µM; at human DGKζ (DGKζ liposome (LIPGLO) assay) it was > 250 µM.
For the molecule `C[C@@H]1CN(c2cc(=O)n(C)c3ccc(C#N)nc23)[C@@H](C)CN1C(c1ccc(F)cc1)c1cnccn1` (single isomer, unassigned) [Example 675], the IC50 came to 4.6 µM at human DGKα (liposome (LIPGLO) assay) and 23 µM at human DGKζ (liposome (LIPGLO) assay).
The corresponding values for `CC[C@@H]1CN(c2cc(=O)n(C)c3ccc(C#N)nc23)[C@@H](C)CN1C(C)c1ccc(OC(F)(F)F)cc1F` (single isomer, unassigned) [Example 1095] are 0.027 µM and 0.018 µM.
Turning to `CC(c1cc(F)c(F)c(F)c1)N1C[C@H](C)N(c2cc(=O)n(C)c3ccc(C#N)nc23)C[C@H]1C` (single isomer, unassigned) [Example 1241], the IC50 at human DGKα (liposome (LIPGLO) assay) came out at 3.8 µM; at human DGKζ (liposome (LIPGLO) assay), 0.6 µM.
In the case of `C[C@@H]1CN(c2c(C#N)c(=O)n(C)c3ccc(C#N)nc23)CCN1C(c1ccccc1)c1cc(F)cc(F)c1` (stereo partly shown) [Example 874], the IC50 on human DGKα (DGKα liposome (LIPGLO) assay) was found to be 14 µM; on human DGKζ (DGKζ liposome (LIPGLO) assay), 2.2 µM.
For `C[C@@H]1CN(c2cc(=O)n(C)c3ccc(C#N)nc23)[C@@H](C)CN1C(c1ccc(F)cc1)c1noc(C(C)(C)C)n1` (single isomer, unassigned) [Example 764], the figures for the IC50 on human DGKα (DGKα liposome (LIPGLO) assay) and at human DGKζ (DGKζ liposome (LIPGLO) assay) were 0.051 µM and 0.53 µM, respectively.
For the molecule `CC(c1cccc(C(F)(F)F)c1)N1CCN(c2c(C#N)c(=O)n(C)c3ccc(C#N)nc23)C[C@H]1C` (single isomer, unassigned) [Example 972], the half-maximal inhibitory concentration (IC50) was determined as 20 µM on human DGKα (DGKα liposome (LIPGLO) assay) and 15 µM on human DGKζ (DGKζ liposome (LIPGLO) assay).
With `C[C@@H]1CN(c2cc(=O)n(C)c3ccc(C#N)nc23)[C@@H](C)CN1C(c1ccc(Cl)cc1)c1ccc(F)c2c1OC(C)(C)C2` (single isomer, unassigned) [Example 459], the IC50 on human DGKα (liposome (LIPGLO) assay) is 36 µM; at human DGKζ (liposome (LIPGLO) assay), 1.1 µM.
For `C[C@@H]1CN(c2cc(=O)n(C)c3ccc(C#N)nc23)[C@@H](C)CN1C(c1ccc(F)cc1)c1cn(C)cn1` (stereo partly shown) [Example 708], the IC50 on human DGKα (liposome (LIPGLO) assay) was determined as 1 µM; on human DGKζ (liposome (LIPGLO) assay), 37 µM.
Consider `COC(=O)c1ccc(C(C)N2C[C@H](C)N(c3c(C#N)c(=O)n(C)c4ccc(C#N)nc34)C[C@H]2C)cc1` (single isomer, unassigned) [Example 794], for which the IC50 was 24 µM on human DGKα (DGKα liposome (LIPGLO) assay) and 120 µM at human DGKζ (DGKζ liposome (LIPGLO) assay).
As to `C[C@@H]1CN(c2c(C(F)F)c(=O)n(C)c3ccc(C#N)nc23)[C@@H](C)CN1Cc1ccc(OC(F)(F)F)cc1F` [Example 570], the IC50 on human DGKα (liposome (LIPGLO) assay) and on human DGKζ (liposome (LIPGLO) assay) was > 250 µM throughout.
Take `Cn1c(=O)cc(N2CCN(C(c3ccc(F)cc3)c3ccc(F)cc3)C(COC(F)F)C2)c2nc(C#N)ccc21` (single isomer, unassigned) [Example 1186]: the figures for the IC50 at human DGKα (liposome (LIPGLO) assay) and at human DGKζ (liposome (LIPGLO) assay) were > 250 µM and 30 µM, respectively.
As for `C[C@@H]1CN(c2c(C#N)c(=O)n(C)c3ccc(C#N)nc23)[C@@H](C)CN1C(c1ccc(F)cc1)c1cc(C2CC2)on1` (single isomer, unassigned) [Example 869], the results for the IC50 at human DGKα (DGKα liposome (LIPGLO) assay) and on human DGKζ (DGKζ liposome (LIPGLO) assay) were 17 µM and 14 µM, respectively.
As for `CC[C@@H]1CN(c2cc(=O)n(C)c3ccc(C#N)nc23)[C@@H](C)CN1C(C)c1ccc(C(F)(F)F)cc1` (single isomer, unassigned) [Example 1094], the IC50 on human DGKα (liposome (LIPGLO) assay) came out at 0.46 µM; at human DGKζ (liposome (LIPGLO) assay), 2.1 µM.
Regarding `CCOC[C@@H]1CN(c2cc(=O)n(C)c3ccc(C#N)nc23)[C@@H](C)CN1C(C)c1ccc(OC(F)(F)F)cc1` (single isomer, unassigned) [Example 1397], the IC50 on human DGKα (liposome (LIPGLO) assay) is 1.3 µM; at human DGKζ (liposome (LIPGLO) assay), 0.054 µM.
With `CC(c1ccc(C(=O)O)cc1)N1C[C@H](C)N(c2c(C#N)c(=O)n(C)c3ccc(C#N)nc23)C[C@H]1C` (stereo partly shown) [Example 786], the IC50 was > 250 µM on human DGKα (DGKα liposome (LIPGLO) assay) and 83 µM on human DGKζ (DGKζ liposome (LIPGLO) assay).
In the case of `Cc1nc2ccc(C(C)N3C[C@H](C)N(c4cc(=O)n(C)c5ccc(C#N)nc45)C[C@H]3C)cc2s1` (single isomer, unassigned) [Example 1263], the IC50 at human DGKα (liposome (LIPGLO) assay) turned out to be 0.95 µM; on human DGKζ (liposome (LIPGLO) assay) it was 0.15 µM.
The corresponding values for `Cc1nc2c(C(C)N3C[C@H](C)N(c4cc(=O)n(C)c5ccc(C#N)nc45)C[C@H]3C)cccc2o1` (single isomer, unassigned) [Example 1260] are 54 µM and 0.086 µM.
For `COC(=O)C1CN(C(c2ccc(F)cc2)c2ccc(F)cc2)CCN1c1c(Br)c(=O)n(C)c2ccc(C#N)nc12` (stereo not shown) [Example 162, Methyl 4-(bis(4-fluorophenyl)methyl)-1-(3-bromo-6-cyano-1-methyl-2-oxo-1,2-dihydro-1,5-naphthyridin-4-yl)piperazine-2-carboxylate], the IC50 on human DGKα (liposome (LIPGLO) assay) was 1.9 µM; on human DGKζ (liposome (LIPGLO) assay) it was 2.4 µM.
With `CC[C@@H]1CN(c2cc(=O)n(C)c3ccc(C#N)nc23)[C@@H](C)CN1C(C)c1c(F)cc(F)cc1F` (single isomer, unassigned) [Example 1089], the IC50 on human DGKα (liposome (LIPGLO) assay) was 0.51 µM; at human DGKζ (liposome (LIPGLO) assay), 0.12 µM.
In the case of `C[C@@H]1CN(c2cc(=O)n(C)c3ccc(C#N)nc23)[C@@H](C)CN1C(c1ccc(F)cc1)c1cccc2ccnn12` (single isomer, unassigned) [Example 694], the IC50 on human DGKα (liposome (LIPGLO) assay) came out at 0.84 µM; at human DGKζ (liposome (LIPGLO) assay) it was 0.12 µM.
On the same counts, the results for `CC[C@@H]1CN(c2cc(=O)n(C)c3ccc(C#N)nc23)[C@@H](C)CN1C(c1ccc(F)cc1)c1nc(C2CC2)no1` (stereo partly shown) [Example 1116] are 0.031 µM and 0.013 µM.
Take `C[C@@H]1CN(c2cc(=O)n(C)c3ccc(C#N)nc23)[C@@H](C)CN1C(c1ccc(F)cc1)c1ccncn1` (single isomer, unassigned) [Example 402]: the IC50 came to 0.82 µM at human DGKα (liposome (LIPGLO) assay) and 9.3 µM on human DGKζ (liposome (LIPGLO) assay).
The corresponding values for `C[C@@H]1CN(c2cc(=O)n(C)c3ccc(C#N)nc23)[C@@H](C)CN1Cc1ccc(OC(F)F)cc1` [Example 588] are 0.091 µM and 7.4 µM.
As to `C[C@@H]1CN(c2c(C#N)c(=O)n(C)c3ccc(C#N)nc23)[C@@H](C)CN1C(c1ccc(F)cc1)c1ccc(C(F)(F)F)cn1` (single isomer, unassigned) [Example 837], the IC50 at human DGKα (DGKα liposome (LIPGLO) assay) was 5.7 µM; at human DGKζ (DGKζ liposome (LIPGLO) assay) it was 35 µM.
As for `CC(c1ccc(C(F)(F)F)cc1F)N1C[C@H](C)N(c2cc(=O)n(C)c3ccc(C#N)nc23)C[C@H]1C` (single isomer, unassigned) [Example 412], the IC50 at human DGKα (liposome (LIPGLO) assay) came to 12 µM; on human DGKζ (liposome (LIPGLO) assay) it was 13 µM.
Turning to `CC(c1cc(F)c(F)c(F)c1)N1C[C@H](C)N(c2cc(=O)n(C)c3ccc(C#N)nc23)C[C@H]1C` (single isomer, unassigned) [Example 1240], the figures for the IC50 at human DGKα (liposome (LIPGLO) assay) and on human DGKζ (liposome (LIPGLO) assay) were 3.5 µM and 0.15 µM, respectively.
On to `CC(c1cccc(C(F)(F)F)c1)N1CCN(c2c(C#N)c(=O)n(C)c3ccc(C#N)nc23)C[C@H]1C` (single isomer, unassigned) [Example 971], for which the results for the IC50 at human DGKα (DGKα liposome (LIPGLO) assay) and on human DGKζ (DGKζ liposome (LIPGLO) assay) were 1.8 µM and 4.9 µM, respectively.
`CC[C@@H]1CN(c2cc(=O)n(C)c3ccc(C#N)nc23)[C@@H](C)CN1C(CC1CCCCC1)c1ccc(OC(F)(F)F)cc1` (stereo partly shown) [Example 1195]: the IC50 at human DGKα (liposome (LIPGLO) assay) turned out to be 0.83 µM; at human DGKζ (liposome (LIPGLO) assay) it was 0.28 µM.
Regarding `Cn1c(=O)cc(N2CC(C3CC3)N(C(c3ccc(F)cc3)c3ccc(F)cc3)CC2C2CC2)c2nc(C#N)ccc21` (single isomer, unassigned) [Example 152, 8-(4-(bis(4-fluorophenyl)methyl)-2,5-dicyclopropylpiperazin-1-yl)-5-methyl-6-oxo-5,6-dihydro-1,5-naphthyridine-2-carbonitrile], the 50% inhibitory concentration (IC50) on human DGKα (liposome (LIPGLO) assay) is 7.7 µM; at human DGKζ (liposome (LIPGLO) assay) it was 240 µM.
With `Cn1c(=O)cc(N2CCN(C(c3ccc(F)cc3)c3ccc(F)cc3)CC2C#N)c2nc(C#N)ccc21` (stereo not shown) [Example 145, 8-(4-(bis(4-fluorophenyl)methyl)-2-cyanopiperazin-1-yl)-5-methyl-6-oxo-5,6-dihydro-1,5-naphthyridine-2-carbonitrile], the values for the IC50 at human DGKα (liposome (LIPGLO) assay) and at human DGKζ (liposome (LIPGLO) assay) were 9 µM and 23 µM, respectively.
Regarding `Cc1cc(C(C)N2C[C@H](C)N(c3cc(=O)n(C)c4ccc(C#N)nc34)C[C@H]2C)no1` (single isomer, unassigned) [Example 648], the results for the IC50 on human DGKα (liposome (LIPGLO) assay) and at human DGKζ (liposome (LIPGLO) assay) were 0.59 µM and 3.9 µM, respectively.
In the case of `C[C@@H]1CN(c2c(C#N)c(=O)n(C)c3ccc(C#N)nc23)CCN1C(c1ccc(Cl)cc1)c1ncccc1F` (stereo partly shown) [Example 913], the figures for the IC50 on human DGKα (DGKα liposome (LIPGLO) assay) and at human DGKζ (DGKζ liposome (LIPGLO) assay) were 2.1 µM and 5.5 µM, respectively.
In the case of `C[C@@H]1CN(c2cc(=O)n(C)c3ccc(C#N)nc23)[C@@H](C)CN1C(c1ccc(F)cc1)c1ccccc1N1CCOCC1` (single isomer, unassigned) [Example 665], the half-maximal inhibitory concentration (IC50) on human DGKα (liposome (LIPGLO) assay) and at human DGKζ (liposome (LIPGLO) assay) was > 250 µM throughout.
For the molecule `COC(CN1C[C@H](C)N(c2cc(=O)n(C)c3ccc(C#N)nc23)C[C@H]1C)c1ccc(F)cc1` (stereo partly drawn) [Example 561, 8-((2S,5R)-4-(2-(4-fluorophenyl)-2-methoxyethyl)-2,5-dimethylpiperazin-1-yl)-5-methyl-6-oxo-5,6-dihydro-1,5-naphthyridine-2-carbonitrile], the IC50 at human DGKα (liposome (LIPGLO) assay) is 7.1 µM; on human DGKζ (liposome (LIPGLO) assay) it was 10 µM.
On the same counts, the results for `COC[C@@H]1CN(c2cc(=O)n(C)c3ccc(C#N)nc23)[C@@H](C)CN1C(C)c1ccc(OC(F)(F)F)cc1` (single isomer, unassigned) [Example 1163] are 10 µM and 7.5 µM.

Values taken from patent US10669272B2, “Substituted naphthyridinone compounds useful as T cell activators” (BRISTOL-MYERS SQUIBB COMPANY, priority 2018, dated 2020).
